Results: PubChem BioAssay AID504559 (Johns Hopkins Ion Channel Center, 2011)
Active and inactive are the calls of the source.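 The calls were made as follows: active = dose-dependent block of Kir2.1 potassium channel current at -100 mV within the tested dose range; inactive = no dose-dependent block of that current.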

Biological target: Inward rectifier potassium channel 2 (Mus musculus) (UniProt P35561)
Assay: Kir2.1 channel inhibitors, concentration series, SAR follow-up, cell-based, IonWorks automated patch clamp, -100 mV (AID 504559)
Settings: Kir2.1 cell line, IonWorks patch clamp current at -100 mV; for current change, negative = inhibition: at 30 µM (top of the series)

Chain of Inward rectifier potassium channel 2 (Mus musculus) (P35561 whole entry, looked up): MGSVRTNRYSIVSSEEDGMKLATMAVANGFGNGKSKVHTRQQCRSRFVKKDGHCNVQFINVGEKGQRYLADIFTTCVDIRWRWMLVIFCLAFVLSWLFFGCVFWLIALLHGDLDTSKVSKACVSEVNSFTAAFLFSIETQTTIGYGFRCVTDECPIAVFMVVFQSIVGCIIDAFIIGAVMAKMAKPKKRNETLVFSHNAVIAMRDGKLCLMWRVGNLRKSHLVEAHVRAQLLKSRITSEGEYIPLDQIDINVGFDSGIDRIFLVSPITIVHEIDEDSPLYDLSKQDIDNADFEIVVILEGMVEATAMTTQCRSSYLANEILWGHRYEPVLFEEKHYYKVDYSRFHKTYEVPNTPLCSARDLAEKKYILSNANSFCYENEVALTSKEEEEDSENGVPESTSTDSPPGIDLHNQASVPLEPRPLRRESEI

SMILES | current change, negative = inhibition | IC50 [µM]
C[C@H](NS(=O)(=O)c1cc(Cl)cc(Cl)c1O)c1ccccc1 | inactive | 
Cc1ccc(C)c(OCCCNCc2ccccc2)c1 |  | 20.5
Cc1noc(C)c1COC(=O)CCN1c2ccccc2Sc2ccccc21 | inactive | 
C[C@@H](NS(=O)(=O)c1cc(Cl)cc(Cl)c1O)c1ccccc1 | inactive | 
C[C@H](NS(C)(=O)=O)c1ccccc1 | inactive | 
Cc1ccc(S(=O)(=O)N[C@H](C)c2ccccc2)cc1 | inactive | 
Cc1ccc2nc(N3CCN(CCO)CC3)nc(-c3ccccc3)c2c1 | inactive | 
c1ccc(CNc2c3ccccc3nc3ccccc23)cc1 | inactive | 
O=C(NCC1CCCCN1)c1cc(OCC(F)(F)F)ccc1OCC(F)(F)F (configuration not stated) | inactive | 
C[C@@H](NS(C)(=O)=O)c1ccccc1 | inactive | 
Cc1ccc(Nc2cc(C)nc3c(C)cccc23)cc1 | inactive | 
CC(O)CNCCCOc1cccc(Oc2ccccc2)c1 (configuration not stated) |  | 11.4
Cc1ccc2nc(NCc3ccccc3)[nH]c2c1 | inactive | 

More lines, now with the values ahead:

current change, negative = inhibition | IC50 [µM] | SMILES
inactive |  | C[C@@H](NS(=O)(=O)c1ccccc1)c1ccccc1
inactive |  | C[C@@H](NS(=O)(=O)c1ccccc1Br)c1ccccc1
 | 21.6 | C[C@H](NS(=O)(=O)c1ccc(Cl)cc1)c1ccccc1
inactive |  | C[C@H](NS(=O)(=O)c1ccccc1Br)c1ccccc1
 | 30.6 | C[C@@H](NS(=O)(=O)c1cccc(Br)c1)c1ccccc1
inactive |  | C[C@H](NS(=O)(=O)c1ccccc1)c1ccccc1
inactive |  | C[C@@H](NS(=O)(=O)c1ccc(Cl)cc1)c1ccccc1
 | 30.9 | C[C@H](NS(=O)(=O)c1cccc(Br)c1)c1ccccc1
 | 21.3 | C[C@H](NS(=O)(=O)c1ccc(Br)cc1)c1ccccc1
